Publication PMC7181660, “A novel specific PERK activator reduces toxicity and extends survival in Huntington's disease models” (Scientific Reports, 2020)
Where two headings read alike, the source gives them in different places.

Tests used:
Test in all cases: biochemical
Format in all cases: biochemical
[1] = biological target: panel of 391 kinases (Homo sapiens, UniProt O00141); details: SGK1, MK-28 1 µM, ATP 1 µM
[2] = biological target: panel of 391 kinases (Homo sapiens, UniProt O00311); details: CDC7/DBF4, MK-28 1 µM, ATP 1 µM
[3] = biological target: panel of 391 kinases (Homo sapiens, UniProt O00444); details: PLK4/SAK, MK-28 1 µM, ATP 1 µM
[4] = biological target: panel of 391 kinases (Homo sapiens, UniProt O14578); details: STK21/CIT, MK-28 1 µM, ATP 1 µM
[5] = biological target: panel of 391 kinases (Homo sapiens, UniProt O75460); details: ERN1/IRE1, MK-28 1 µM, ATP 1 µM
[6] = biological target: panel of 391 kinases (Homo sapiens, UniProt P04049); details: RAF1, MK-28 1 µM, ATP 1 µM
[7] = biological target: panel of 391 kinases (Homo sapiens, UniProt P06213); details: IR, MK-28 1 µM, ATP 1 µM
[8] = biological target: panel of 391 kinases (Homo sapiens, UniProt P08069); details: IGF1R, MK-28 1 µM, ATP 1 µM
[9] = biological target: panel of 391 kinases (Homo sapiens, UniProt P11309); details: PIM1, MK-28 1 µM, ATP 1 µM
[10] = biological target: panel of 391 kinases (Homo sapiens, UniProt P36894); details: ALK3/BMPR1A, MK-28 1 µM, ATP 1 µM
[11] = biological target: panel of 391 kinases (Homo sapiens, UniProt P36896); details: ALK4/ACVR1B, MK-28 1 µM, ATP 1 µM
[12] = biological target: panel of 391 kinases (Homo sapiens, UniProt P41279); details: COT1/MAP3K8, MK-28 1 µM, ATP 1 µM
[13] = biological target: panel of 391 kinases (Homo sapiens, UniProt P51813); details: BMX/ETK, MK-28 1 µM, ATP 1 µM
[14] = biological target: panel of 391 kinases (Homo sapiens, UniProt P53779); details: JNK3, MK-28 1 µM, ATP 1 µM
[15] = biological target: panel of 391 kinases (Homo sapiens, UniProt P54756); details: EPHA5, MK-28 1 µM, ATP 1 µM
[16] = biological target: panel of 391 kinases (Homo sapiens, UniProt Q00535); details: MK-28 1 µM, ATP 1 µM; for remaining activity at 1 µM: read-out: % Enzyme Activity (relative to DMSO controls)
[17] = biological target: panel of 391 kinases (Homo sapiens, UniProt Q13177); details: PAK2, MK-28 1 µM, ATP 1 µM
[18] = biological target: panel of 391 kinases (Homo sapiens, UniProt Q16288); details: TRKC, MK-28 1 µM, ATP 1 µM
[19] = biological target: panel of 391 kinases (Homo sapiens, UniProt Q6PHR2); details: ULK3, MK-28 1 µM, ATP 1 µM
[20] = biological target: panel of 391 kinases (Homo sapiens, UniProt Q6XUX3); details: RIPK5, MK-28 1 µM, ATP 1 µM
[21] = biological target: panel of 391 kinases (Homo sapiens, UniProt Q7KZI7); details: MARK2/PAR-1Ba, MK-28 1 µM, ATP 1 µM
[22] = biological target: panel of 391 kinases (Homo sapiens, UniProt Q8IY84); details: NIM1, MK-28 1 µM, ATP 1 µM
[23] = biological target: panel of 391 kinases (Homo sapiens, UniProt Q9BZL6); details: PKD2/PRKD2, MK-28 1 µM, ATP 1 µM
[24] = biological target: panel of 391 kinases (Homo sapiens, UniProt Q9UQB9); details: Aurora C, MK-28 1 µM, ATP 1 µM
[25] = biological target: panel of 391 kinases (Homo sapiens, UniProt Q9Y2H1); details: STK38L/NDR2, MK-28 1 µM, ATP 1 µM
[26] = biological target: panel of 391 kinases (Homo sapiens, UniProt Q9Y6E0); details: MST3/STK24, MK-28 1 µM, ATP 1 µM
[27] = read-out: % Enzyme Activity (relative to DMSO controls)

Compound: CN(/N=C\c1ccc(O)c(O)c1)c1nc(-c2ccccc2)cc(-c2ccccc2)n1 [MK-28]
- % Enzyme Activity (relative to DMSO controls) [1]: 103.26%
- remaining activity at 1 µM [1, 27]: 108%
- % Enzyme Activity (relative to DMSO controls) [2]: 105.60%
- remaining activity at 1 µM [2, 27]: 113%
- % Enzyme Activity (relative to DMSO controls) [3]: 92.07%
- remaining activity at 1 µM [3, 27]: 94.7%
- % Enzyme Activity (relative to DMSO controls) [4]: 95.45%
- remaining activity at 1 µM [4, 27]: 97.6%
- % Enzyme Activity (relative to DMSO controls) [5]: 104.22%
- remaining activity at 1 µM [5, 27]: 105%
- % Enzyme Activity (relative to DMSO controls) [6]: 93.95%
- remaining activity at 1 µM [6, 27]: 94.3%
- % Enzyme Activity (relative to DMSO controls) [7]: 92.32%
- remaining activity at 1 µM [7, 27]: 94.4%
- % Enzyme Activity (relative to DMSO controls) [8]: 98.39%
- remaining activity at 1 µM [8, 27]: 100%
- % Enzyme Activity (relative to DMSO controls) [9]: 100.72%
- remaining activity at 1 µM [9, 27]: 101%
- % Enzyme Activity (relative to DMSO controls) [10]: 98.85%
- remaining activity at 1 µM [10, 27]: 106%
- % Enzyme Activity (relative to DMSO controls) [11]: 89.88%
- remaining activity at 1 µM [11, 27]: 92.3%
- % Enzyme Activity (relative to DMSO controls) [12]: 95.23%
- remaining activity at 1 µM [12, 27]: 96%
- % Enzyme Activity (relative to DMSO controls) [13]: 100.53%
- remaining activity at 1 µM [13, 27]: 102%
- % Enzyme Activity (relative to DMSO controls) [14]: 94.93%
- remaining activity at 1 µM [14, 27]: 99.6%
- % Enzyme Activity (relative to DMSO controls) [15]: 98.83%
- remaining activity at 1 µM [15, 27]: 103%
- % Enzyme Activity (relative to DMSO controls) ([16]; CDK5/p25): 93.55%
- remaining activity at 1 µM ([16]; CDK5/p25): 93.6%
- % Enzyme Activity (relative to DMSO controls) ([16]; CDK5/p35): 96.39%
- remaining activity at 1 µM ([16]; CDK5/p35): 96.6%
- % Enzyme Activity (relative to DMSO controls) [17]: 99.51%
- remaining activity at 1 µM [17, 27]: 99.7%
- % Enzyme Activity (relative to DMSO controls) [18]: 91.11%
- remaining activity at 1 µM [18, 27]: 92.9%
- % Enzyme Activity (relative to DMSO controls) [19]: 97.75%
- remaining activity at 1 µM [19, 27]: 98.7%
- % Enzyme Activity (relative to DMSO controls) [20]: 103.40%
- remaining activity at 1 µM [20, 27]: 105%
- % Enzyme Activity (relative to DMSO controls) [21]: 98.73%
- remaining activity at 1 µM [21, 27]: 106%
- % Enzyme Activity (relative to DMSO controls) [22]: 98.00%
- remaining activity at 1 µM [22, 27]: 104%
- % Enzyme Activity (relative to DMSO controls) [23]: 86.38%
- remaining activity at 1 µM [23, 27]: 87%
- % Enzyme Activity (relative to DMSO controls) [24]: 93.97%
- remaining activity at 1 µM [24, 27]: 95.6%
- % Enzyme Activity (relative to DMSO controls) [25]: 94.10%
- remaining activity at 1 µM [25, 27]: 96%
- % Enzyme Activity (relative to DMSO controls) [26]: 121.45%
- remaining activity at 1 µM [26, 27]: 122%
